Where a chain is given by its changes, count along the chain named. Numbered stars: 1 amine (or outer) side, 2 acyl side, 3 side chain; on linkers, the order of the positions; unused ones are H or OH. Bridge positions count the residues as written; N and C are the ends. Square brackets hold non-standard residues; d marks the D form. Peptide text beside a SMILES is read from it. X2 = CC(=O)NC(C(=O)OC(C(C)C)C(N[*:1])C(=O)[*:2])C(O)C(C)C; PhLac = O=C(O)[CH](O)Cc1ccccc1; NMeT = CN[CH](C(=O)O)[CH](C)O; NMeA = CN[CH](C)C(=O)O; NMeDha = C=C(NC)C(=O)O
Key:
Experiment in all cases: cell-based
Conditions in all cases: read-out: YM pIC50 (converted)
Gα16 (G16 WT) S185V = biological target: T1, Gα16 (G16 WT) S185V (Homo sapiens, UniProt P30679, S185V); set-up: species or system HEK293 Gαq/Gα11-null (CRISPR/Cas9), transfected Gα
T1 construct: gene GNA15; human Gα16 cDNA in pcDNA3.1(+), expressed in CRISPR/Cas9 Gαq/Gα11-null HEK293 cells (transient); endogenous Gβγ
T1 sequence (P30679 1-374 S185V): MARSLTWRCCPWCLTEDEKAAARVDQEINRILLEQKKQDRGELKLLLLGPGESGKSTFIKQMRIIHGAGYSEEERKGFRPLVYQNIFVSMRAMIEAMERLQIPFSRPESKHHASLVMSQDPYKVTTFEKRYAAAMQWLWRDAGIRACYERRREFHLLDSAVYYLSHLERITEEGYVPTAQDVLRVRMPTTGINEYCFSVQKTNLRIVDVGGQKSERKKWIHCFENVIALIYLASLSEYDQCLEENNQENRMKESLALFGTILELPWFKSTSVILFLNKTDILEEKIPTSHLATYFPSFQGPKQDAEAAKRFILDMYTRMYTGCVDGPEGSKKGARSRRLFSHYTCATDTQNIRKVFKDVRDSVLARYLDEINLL
Protocol: Quantification of DMR signals was performed by calculation of the maximum responses. Data points from concentration-response or inhibition curves of individual functional experiments were fitted to the following four-parameter logistic function. (Eq. 1) Y=Bottom+(Top−Bottom)/1+10^(logEC50−x)slope Concentration-effect curves represented in figures were normalized by setting each experimental maximal effect as 100% response. All data are expressed as mean + or ± S.E. of at least three independent experiments performed in technical triplicates. […] Because none of our mutant proteins were […], we searched for additional residues that, when mutated, may incur activity loss for the two depsipeptides. We focused our attention on residues that (i) differed between Gαq and Gα16, (ii) were not addressed previously by mutagenesis, and (iii) were located on both linkers, including adjacent regions, to either directly interact with the depsipeptides (if side-chain or Gα atoms were within 5 Å to YM) or to be close enough to assist in stabilizing the inhibitor–protein interactions. Aspartate 71 (Asp-71) and valine 182 (Val-182) fulfilled these criteria (Fig. 3A; see also Fig. 2A): Asp-71 is part of an aspartic acid–arginine salt bridge that likely provides the interface between the depsipeptides and linker 1 by stabilizing and maintaining the inhibitor–linker 1 spacing (Fig. 3B). […]

Gα16 (G16 WT) E74D = biological target: T2, Gα16 (G16 WT) E74D (Homo sapiens, UniProt P30679, E74D); set-up: species or system HEK293 Gαq/Gα11-null (CRISPR/Cas9)
T2 construct: gene GNA15; human Gα16 cDNA in pcDNA3.1(+), expressed in CRISPR/Cas9 Gαq/Gα11-null HEK293 cells (transient); endogenous Gβγ
T2 sequence (P30679 1-374 E74D): T1 sequence (P30679 1-374 S185V) with E74D, V185S
Protocol: (§1) Successful mutations were verified by DNA sequencing. Subconfluent cell cultures were transiently transfected with the respective expression plasmids using the polyethylenimine reagent (Polysciences, Warrington, PA) following the protocol provided by the manufacturer. All data were analyzed using GraphPad Prism 8.0.0 (GraphPad Inc., La Jolla, CA). Quantification of DMR signals was performed by calculation of the maximum responses. Data points from concentration-response or inhibition curves of individual functional experiments were fitted to the following four-parameter logistic function. (Eq. 1) Y=Bottom+(Top−Bottom)/1+10^(logEC50−x)slope Concentration-effect curves represented in figures were normalized by setting each experimental maximal effect as 100% response. All data are expressed as mean + or ± S.E. of at least three independent experiments performed in technical triplicates.

Gα16 (G16 WT) C196P = biological target: T3, Gα16 (G16 WT) C196P (Homo sapiens, UniProt P30679, C196P); set-up: species or system HEK293 Gαq/Gα11-null (CRISPR/Cas9)
T3 construct: gene GNA15; human Gα16 cDNA in pcDNA3.1(+), expressed in CRISPR/Cas9 Gαq/Gα11-null HEK293 cells (transient); endogenous Gβγ
T3 sequence (P30679 1-374 C196P): T1 sequence (P30679 1-374 S185V) with V185S, C196P
Protocol: as §1

Gα16 (G16 WT) M187V = biological target: T4, Gα16 (G16 WT) M187V (Homo sapiens, UniProt P30679, M187V); set-up: species or system HEK293 Gαq/Gα11-null (CRISPR/Cas9)
T4 construct: gene GNA15; human Gα16 cDNA in pcDNA3.1(+), expressed in CRISPR/Cas9 Gαq/Gα11-null HEK293 cells (transient); endogenous Gβγ
T4 sequence (P30679 1-374 M187V): T1 sequence (P30679 1-374 S185V) with V185S, M187V
Protocol: as §1

SMILES: C=C1C(=O)NC(C)C(=O)N(C)C(C)C(=O)NC(C(OC(=O)C(NC(C)=O)C(O)C(C)C)C(C)C)C(=O)N(C)C(C(C)OC)C(=O)OC(C)C(NC(C)=O)C(=O)OC(Cc2ccccc2)C(=O)N1C (stereo not shown) [YM, YM-254890] (Ac-T[PhLac][NMeDha]A[NMeA][X2][NMeT](Me); ester 1-C; configuration not given here)
- IC50 (Gα16 (G16 WT) S185V): ~316 µM
- IC50 (Gα16 (G16 WT) E74D): > 1000 µM
- IC50 (Gα16 (G16 WT) C196P): > 1000 µM
- IC50 (Gα16 (G16 WT) M187V): > 1000 µM

Reference: article PMC6463727, “Rational design of a heterotrimeric G protein α subunit with artificial inhibitor sensitivity” (The Journal of Biological Chemistry, 2019)
